Data published in ChEMBL document CHEMBL5316327, “Design and Synthesis of Orally Active Quinolyl Pyrazinamides as Sigma 2 Receptor Ligands for the Treatment of Pancreatic Cancer” (J Med Chem, 2023).
Active and inactive are the calls of the source. The calls are words filed in the database; no cut-off is given here.

Assays:
MIA PaCa-2 [1] = assay: Induction of apoptosis in human MIA PaCa-2 cells assessed as necrotic cells at 10.0 uM measured after 48 hrs by Annexin V-Alexa Fluor 488/propidium iodide staining based flow cytometry (reference value: 7.03%); type: functional
MIA PaCa-2 [2] = assay: Induction of apoptosis in human MIA PaCa-2 cells assessed as early apoptotic cells at […] measured after 48 hrs by Annexin V-Alexa Fluor 488/propidium iodide staining based flow cytometry (reference value: 4.11%); type: functional; conditions: dose 2.5 µM
MIA PaCa-2 [3] = assay: Additive ferroptosis activity in human MIA-PaCa-2 cells at upto 1 uM measured after 7 days in presence of ferrostatin-1 by crystal violet staining based analysis; type: functional, cell-based; conditions: time 7.0 day
MIA PaCa-2 [4] = assay: Induction of cell cycle arrest in human MIA PaCa-2 cells assessed as accumulation of cells in S phase at 1 uM measured after 24 hrs by propidium iodide staining-based flow cytometric analysis (reference value: 31%); type: functional
[5] = Clearance in CD-1 mouse plasma at 10 mg/kg, iv; type: ADME, organism-based
HCT-116 [6] = assay: Induction of apoptosis in human HCT-116 cells assessed as early apoptotic cells at 10.0 uM measured after 48 hrs by Annexin V-Alexa Fluor 488/propidium iodide staining based flow cytometry (reference value: 2.77%); type: functional
MIA PaCa-2 [7] = assay: Induction of apoptosis in human MIA PaCa-2 cells assessed as late apoptotic cells at 10.0 uM measured after 48 hrs by Annexin V-Alexa Fluor 488/propidium iodide staining based flow cytometry (reference value: 6.63%); type: functional
HCT-116 [8] = assay: Induction of cell cycle arrest in human HCT-116 cells assessed as accumulation of cells in G0/G1 phase at 5 uM measured after 24 hrs by propidium iodide staining-based flow cytometric analysis (reference value: 43%); type: functional
MIA PaCa-2 [9] = assay: Synergistic cytotoxicity in human MIA PaCa-2 cells at upto 1 uM measured after 7 days in presence of doxorubicin by crystal violet staining based analysis; type: functional, cell-based; conditions: time 7.0 day
MIA PaCa-2 [10] = assay: Induction of cell cycle arrest in human MIA PaCa-2 cells assessed as accumulation of cells in G2/M phase at 5 uM measured after 24 hrs by propidium iodide staining-based flow cytometric analysis (reference value: 16%); type: functional
MIA PaCa-2 [11] = assay: Upregulation of GRP78 in human MIA PaCa-2 cells at 10 uM measured after 24 hrs by Western blot analysis; type: functional, cell-based
MIA PaCa-2 [12] = assay: Induction of cell cycle arrest in human MIA PaCa-2 cells assessed as accumulation of cells in G0/G1 phase at 5 uM measured after 24 hrs by propidium iodide staining-based flow cytometric analysis (reference value: 53%); type: functional
MIA PaCa-2 [13] = assay: Synergistic ferroptosis activity in human MIA-PaCa-2 cells at upto 1 uM measured after 7 days in presence of erastin by crystal violet staining based analysis; type: functional, cell-based; conditions: time 7.0 day
HCT-116 [14] = assay: Induction of cell cycle arrest in human HCT-116 cells assessed as accumulation of cells in S phase at […] measured after 24 hrs by propidium iodide staining-based flow cytometric analysis (reference value: 47%); type: functional; conditions: dose 2.5 µM
MIA PaCa-2 [15] = assay: Induction of cell cycle arrest in human MIA PaCa-2 cells assessed as accumulation of cells in S phase at 10 uM measured after 24 hrs by propidium iodide staining-based flow cytometric analysis (reference value: 31%); type: functional
HCT-116 [16] = assay: Induction of apoptosis in human HCT-116 cells assessed as late apoptotic cells at 1.0 uM measured after 48 hrs by Annexin V-Alexa Fluor 488/propidium iodide staining based flow cytometry (reference value: 8.48%); type: functional
HCT-116 [17] = assay: Induction of cell cycle arrest in human HCT-116 cells assessed as accumulation of cells in S phase at 1 uM measured after 24 hrs by propidium iodide staining-based flow cytometric analysis (reference value: 47%); type: functional
Panc02 [18] = assay: Antitumor activity against mouse Panc02 cells xenografted in C57BL/6 mouse model assessed as delayed tumor growth at 60 mg/kg, ip administered daily for 28 days by caliper method; type: functional, organism-based; conditions: time 28.0 day
MIA PaCa-2 [19] = assay: Induction of autophagy in human MIA PaCa-2 cells assessed as upregulation of LC-3 level at 1 to 10 uM measured after 24 hrs; type: functional, cell-based; conditions: dose 1-10 µM
[20] = molecular target: Beta-1 adrenergic receptor (Homo sapiens, UniProt P08588); assay: Binding affinity to beta1 receptor (unknown origin) assessed as inhibition constant
Beta-1 adrenergic receptor, sequence (P08588 whole entry): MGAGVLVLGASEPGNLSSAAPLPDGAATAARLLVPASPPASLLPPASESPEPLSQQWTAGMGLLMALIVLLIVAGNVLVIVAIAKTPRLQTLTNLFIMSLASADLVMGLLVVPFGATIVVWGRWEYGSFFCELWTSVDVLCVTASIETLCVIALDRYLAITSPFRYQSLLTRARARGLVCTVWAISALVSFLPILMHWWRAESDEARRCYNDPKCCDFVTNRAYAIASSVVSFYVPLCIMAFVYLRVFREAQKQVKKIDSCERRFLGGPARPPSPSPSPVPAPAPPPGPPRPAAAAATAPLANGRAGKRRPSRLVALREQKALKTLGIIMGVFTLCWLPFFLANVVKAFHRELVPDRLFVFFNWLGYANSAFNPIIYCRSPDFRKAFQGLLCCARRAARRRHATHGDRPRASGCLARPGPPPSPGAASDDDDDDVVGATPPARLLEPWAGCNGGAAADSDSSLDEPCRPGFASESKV

MIA PaCa-2 [21] = assay: Induction of cell cycle arrest in human MIA PaCa-2 cells assessed as accumulation of cells in G0/G1 phase at 10 uM measured after 24 hrs by propidium iodide staining-based flow cytometric analysis (reference value: 53%); type: functional
HCT-116 [22] = assay: Induction of apoptosis in human HCT-116 cells assessed as viable cells at 5.0 uM measured after 48 hrs by Annexin V-Alexa Fluor 488/propidium iodide staining based flow cytometry (reference value: 79.69%); type: functional; conditions: read-out: Activity
[23] = molecular target: Alpha-2A adrenergic receptor (Homo sapiens, UniProt P08913); assay: Binding affinity to alpha2A receptor (unknown origin) assessed as inhibition constant
Alpha-2A adrenergic receptor, sequence (P08913 whole entry): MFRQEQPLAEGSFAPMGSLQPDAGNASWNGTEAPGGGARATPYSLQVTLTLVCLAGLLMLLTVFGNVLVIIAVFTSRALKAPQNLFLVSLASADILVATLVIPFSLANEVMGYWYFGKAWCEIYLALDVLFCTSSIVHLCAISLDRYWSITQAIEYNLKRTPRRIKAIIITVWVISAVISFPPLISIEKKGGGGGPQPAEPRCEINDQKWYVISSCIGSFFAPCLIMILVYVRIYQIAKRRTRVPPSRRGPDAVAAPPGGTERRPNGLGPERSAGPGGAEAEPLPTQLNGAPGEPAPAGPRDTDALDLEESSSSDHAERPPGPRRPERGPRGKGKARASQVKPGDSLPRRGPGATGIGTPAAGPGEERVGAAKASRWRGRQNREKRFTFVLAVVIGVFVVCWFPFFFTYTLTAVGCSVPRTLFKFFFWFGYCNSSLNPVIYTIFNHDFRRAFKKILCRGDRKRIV

Panc02 [24] = assay: cells; conditions: Mus musculus, Panc02, 72 h
[25] = Volume of distribution at steady state in CD-1 mouse plasma at 10 mg/kg, iv; type: ADME, organism-based; conditions: read-out: Vdss
[26] = molecular target: Muscarinic acetylcholine receptor M2 (Homo sapiens, UniProt P08172); assay: Binding affinity to M2 receptor (unknown origin) assessed as inhibition constant
Muscarinic acetylcholine receptor M2, sequence (P08172 whole entry): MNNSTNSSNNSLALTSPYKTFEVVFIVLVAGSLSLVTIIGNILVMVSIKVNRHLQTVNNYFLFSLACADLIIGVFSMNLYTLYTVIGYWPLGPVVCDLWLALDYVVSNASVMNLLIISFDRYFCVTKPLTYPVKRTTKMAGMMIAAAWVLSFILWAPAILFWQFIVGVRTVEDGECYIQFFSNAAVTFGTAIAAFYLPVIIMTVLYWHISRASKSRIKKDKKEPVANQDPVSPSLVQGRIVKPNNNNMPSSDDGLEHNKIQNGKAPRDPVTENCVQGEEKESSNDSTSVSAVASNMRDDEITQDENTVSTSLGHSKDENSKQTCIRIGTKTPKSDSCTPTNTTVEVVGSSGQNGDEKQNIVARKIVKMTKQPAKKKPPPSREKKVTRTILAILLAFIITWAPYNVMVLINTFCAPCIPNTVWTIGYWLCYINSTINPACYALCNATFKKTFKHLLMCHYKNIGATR

MIA PaCa-2 [27] = assay: Synergistic cytotoxicity in human MIA PaCa-2 cells at upto 1 uM measured after 7 days in presence of cisplatin by crystal violet staining based analysis; type: functional, cell-based; conditions: time 7.0 day
MIA PaCa-2 [28] = assay: Induction of apoptosis in human MIA PaCa-2 cells assessed as late apoptotic cells at 1.0 uM measured after 48 hrs by Annexin V-Alexa Fluor 488/propidium iodide staining based flow cytometry (reference value: 6.63%); type: functional
[29] = Cytotoxicity against HEK293 cells measured after 72 hrs by MTT assay; type: toxicity, cell-based; conditions: human
MIA PaCa-2 [30] = assay: Synergistic cytotoxicity against human MIA PaCa-2 cells at upto 1 uM measured after 7 days in presence of copper chloride by crystal violet staining based analysis; type: functional, cell-based; conditions: time 7.0 day
MIA PaCa-2 [31] = assay: Induction of apoptosis in human MIA PaCa-2 cells assessed as early apoptotic cells at 1.0 uM measured after 48 hrs by Annexin V-Alexa Fluor 488/propidium iodide staining based flow cytometry (reference value: 4.11%); type: functional
HCT-116 [32] = assay: Induction of apoptosis in human HCT-116 cells assessed as late apoptotic cells at […] measured after 48 hrs by Annexin V-Alexa Fluor 488/propidium iodide staining based flow cytometry (reference value: 8.48%); type: functional; conditions: dose 2.5 µM
[33] = Toxicity in C57BL/6 mouse assessed as effect on body weight at 30 mg/kg, po administered for 32 days and measured on day 1 to 3,5,6,8 to 32 in presence of copper sulfate; type: organism-based; conditions: in vivo, 768 h, time 32 day
HCT-116 [34] = assay: Induction of cell cycle arrest in human HCT-116 cells assessed as accumulation of cells in S phase at 10 uM measured after 24 hrs by propidium iodide staining-based flow cytometric analysis (reference value: 47%); type: functional
HCT-116 [35] = assay: Induction of cell cycle arrest in human HCT-116 cells assessed as accumulation of cells in G0/G1 phase at […] measured after 24 hrs by propidium iodide staining-based flow cytometric analysis (reference value: 43%); type: functional; conditions: dose 2.5 µM

SMILES: CCN(CC)CCCC(C)Nc1cnc(C(=O)Nc2ccc(Cl)c3cccnc23)cn1 (stereo not given)
- Activity (MIA PaCa-2 [1]): 7.21%
- Activity (MIA PaCa-2 [2]): 13.89%
- Activity (MIA PaCa-2 [3]): Active
- Activity (MIA PaCa-2 [4]): 40%
- clearance [5]: 62.2 mL/min/kg
- Activity (HCT-116 [6]): 16.72%
- Activity (MIA PaCa-2 [7]): 53.96%
- Activity (HCT-116 [8]): 44%
- Activity (MIA PaCa-2 [9]): inactive
- Activity (MIA PaCa-2 [10]): 17%
- Activity (MIA PaCa-2 [11]): Active
- Activity (MIA PaCa-2 [12]): 61%
- Activity (MIA PaCa-2 [13]): Active
- Activity (HCT-116 [14]): 33%
- Activity (MIA PaCa-2 [15]): 14%
- Activity (HCT-116 [16]): 9.6%
- Activity (HCT-116 [17]): 34%
- Activity (Panc02 [18]): Active
- Activity (MIA PaCa-2 [19]): Active
- Ki [20]: 6350 nM
- Activity (MIA PaCa-2 [21]): 69%
- viability at 5 µM (HCT-116 [22]): 64.1%
- Ki [23]: 2740 nM
- IC50 (Panc02 [24]): 3700 nM
- Vd [25]: 21.4 L/kg
- Ki [26]: 680 nM
- Activity (MIA PaCa-2 [27]): inactive
- Activity (MIA PaCa-2 [28]): 30.8%
- IC50 at 72 h [29]: 1200 nM
- Activity (MIA PaCa-2 [30]): Active
- Activity (MIA PaCa-2 [31]): 11.44%
- Activity (HCT-116 [32]): 20.26%
- Activity [33]: Non-Toxic
- Activity (HCT-116 [34]): 20%
- Activity (HCT-116 [35]): 48%
